From PubChem BioAssay (NCI)
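These data come from cells grown in 96-well plates and exposed to compound for 48 hours at five concentrations. GI50 marks 50% less growth. TGI denotes the concentration required for complete inhibition of growth.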

Key:
Assay in all cases: growth of human tumour cells (NCI), 48 h
[1] = tested on: UO-31 renal
[2] = tested on: RXF 393 renal
[3] = tested on: OVCAR-4 ovarian
[4] = tested on: M14 melanoma
[5] = tested on: NCI-H23 lung
[6] = tested on: A549 NSCLC
[7] = tested on: PC-3 prostate
[8] = tested on: UACC-257 melanoma
[9] = tested on: HL-60(TB) leukemia
[10] = tested on: SK-MEL-2 melanoma
[11] = tested on: LOX IMVI melanoma
[12] = tested on: U251 CNS
[13] = tested on: UACC-62 melanoma
[14] = tested on: CAKI-1 renal
[15] = tested on: RPMI-8226 leukemia
[16] = tested on: SNB-75 CNS
[17] = tested on: IGROV1 ovarian
[18] = tested on: HT29 colon
[19] = tested on: COLO 205 colon
[20] = tested on: OVCAR-5 ovarian
[21] = tested on: OVCAR-3 ovarian
[22] = tested on: SF-268 CNS
[23] = tested on: MDA-MB-435
[24] = tested on: HCT-116 colon
[25] = tested on: ACHN renal
[26] = tested on: SN12C renal
[27] = tested on: OVCAR-8 ovarian
[28] = tested on: SNB-19 CNS
[29] = tested on: CCRF-CEM leukemia
[30] = tested on: K-562 leukemia
[31] = tested on: BT-549 breast
[32] = tested on: SR leukemia
[33] = tested on: HCT-15 colon
[34] = tested on: SK-MEL-28 melanoma
[35] = tested on: 786-0 renal
[36] = tested on: HOP-62 NSCLC
[37] = tested on: MOLT-4 leukemia
[38] = tested on: KM12 colon
[39] = tested on: T-47D breast
[40] = tested on: SF-539 CNS
[41] = tested on: A498 renal
[42] = tested on: NCI-H226 lung
[43] = tested on: NCI-H460 lung
[44] = tested on: NCI/ADR-RES ovarian
[45] = tested on: DU-145 prostate
[46] = tested on: SW-620 colon
[47] = tested on: HCC-2998 colon
[48] = tested on: MALME-3M melanoma
[49] = tested on: TK-10 renal
[50] = tested on: MCF7 breast
[51] = tested on: SK-OV-3 ovarian
[52] = tested on: SF-295 CNS
[53] = tested on: MDA-MB-231 breast

For `CC[N+](CCCCCCCCCC[N+](CC)(c1ccccn1)c1ccccn1)(c1ccccn1)c1ccccn1`, the GI50 [1] was 2.09 µM, the TGI [1] was 12.6 µM and the GI50 [2] was 2.5 µM. The TGI [2] was 21.2 µM, the GI50 [3] was 1.01 µM and the TGI [3] was greater than 100 µM. For the same compound, the GI50 [4] was 2.57 µM, the TGI [4] was 30.5 µM and the GI50 [5] was 0.696 µM. The TGI [5] was 17.9 µM, the GI50 [6] was 0.456 µM and the TGI [6] was greater than 100 µM. It also gave a GI50 [7] of 0.459 µM, a TGI [7] of 11.2 µM and a GI50 [8] of 0.745 µM. The TGI [8] was 12.9 µM, the GI50 [9] was 0.554 µM and the TGI [9] was 2.93 µM. The GI50 [10] was 1.88 µM, the TGI [10] was 5.82 µM and the GI50 [11] was 1.5 µM. It also gave a TGI [11] of 4.29 µM, a GI50 [12] of 0.526 µM and a TGI [12] of 24 µM. It also gave a GI50 [13] of 0.915 µM, a TGI [13] of 7.34 µM and a GI50 [14] of 2.61 µM. For the same compound, the TGI [14] was 9.92 µM, the GI50 [15] was 0.267 µM and the TGI [15] was 3.57 µM. It also gave a GI50 [16] of 1.25 µM, a TGI [16] of 32.2 µM and a GI50 [17] of 2.07 µM. The TGI [17] was 11.7 µM, the GI50 [18] was 0.764 µM and the TGI [18] was 12.1 µM. For the same compound, the GI50 [19] was 1.78 µM, the TGI [19] was 11.6 µM and the GI50 [20] was 1.86 µM. The TGI [20] was 9.65 µM, the GI50 [21] was 1.09 µM and the TGI [21] was 10.1 µM. It also gave a GI50 [22] of 1.02 µM, a TGI [22] of 19.5 µM and a GI50 [23] of 0.609 µM. It also gave a TGI [23] of 4.19 µM, a GI50 [24] of 0.851 µM and a TGI [24] greater than 100 µM. The GI50 [25] was 2.8 µM, the TGI [25] was 12.9 µM and the GI50 [26] was 0.431 µM. It also gave a TGI [26] of 11 µM, a GI50 [27] of 2.11 µM and a TGI [27] of 57.5 µM. For the same compound, the GI50 [28] was 0.761 µM, the TGI [28] was 27.3 µM and the GI50 [29] was 1.05 µM. The TGI [29] was 8.78 µM, the GI50 [30] was 0.49 µM and the TGI [30] was 16 µM. It also gave a GI50 [31] of 0.973 µM, a TGI [31] of 88.9 µM and a GI50 [32] of 1.36 µM. For the same compound, the TGI [32] was 22.1 µM, the GI50 [33] was 3.2 µM and the TGI [33] was 18.8 µM. For the same compound, the GI50 [34] was 2.48 µM, the TGI [34] was 15.2 µM and the GI50 [35] was 3.76 µM. The TGI [35] was 66.2 µM, the GI50 [36] was 2.15 µM and the TGI [36] was 9.15 µM. For the same compound, the GI50 [37] was 2.28 µM, the TGI [37] was 13.2 µM and the GI50 [38] was 0.739 µM. The TGI [38] was 8 µM, the GI50 [39] was 0.295 µM and the TGI [39] was 1.7 µM. The GI50 [40] was 1.72 µM, the TGI [40] was 14.1 µM and the GI50 [41] was 1.02 µM. The TGI [41] was 5.58 µM, the GI50 [42] was 2.04 µM and the TGI [42] was 22.3 µM. It also gave a GI50 [43] of 0.625 µM, a TGI [43] of 10.3 µM and a GI50 [44] of 5.28 µM. For the same compound, the TGI [44] was 53.8 µM, the GI50 [45] was 0.858 µM and the TGI [45] was 12.4 µM. The GI50 [46] was 2.14 µM, the TGI [46] was 15.6 µM and the GI50 [47] was 1.95 µM. For the same compound, the TGI [47] was 27.2 µM, the GI50 [48] was 1.52 µM and the TGI [48] was 17.7 µM. For the same compound, the GI50 [49] was 3.65 µM, the TGI [49] was 24.5 µM and the GI50 [50] was 0.437 µM. It also gave a TGI [50] of 4.26 µM, a GI50 [51] of 2.22 µM and a TGI [51] of 9.28 µM. It also gave a GI50 [52] of 0.668 µM, a TGI [52] of 2.29 µM and a GI50 [53] of 2.24 µM. The TGI [53] was 13.8 µM.
